ChEMBL document CHEMBL3832057

Test system: Homo sapiens
Assay: Evaluation of pharmacokinetic parameters for Rifampin in serum following single oral administration of 10 mg/kg Rifampin to pediatric patients.
Format: ADME, organism-based
Set-up: dose 600 mg, dose 10 mg/kg, route oral
Settings: in vivo, dosed compound id 35, dosed compound name RIFAMPICIN, gender male and female, regimen Single dose, tissue Serum

Q: Which Tmax does the source give for `CO[C@H]1/C=C/O[C@@]2(C)Oc3c(C)c(O)c4c(O)c(c(/C=N/N5CCN(C)CC5)c(O)c4c3C2=O)NC(=O)/C(C)=C\C=C\[C@H](C)[C@H](O)[C@@H](C)[C@@H](O)[C@@H](C)[C@H](OC(C)=O)[C@@H]1C` [RIFAMPIN] here?
A: The Tmax was 1 h.
